Assay [1] relates to Rhodopirellula baltica RbMPO, wild type, SEQ ID NO: 1. The note with it: 0.5 nM wt RbMPO, 79 μM H2O2, 37° C., pH5.5. The method, then:
The plate reader was configured to run a 10 min kinetics at 430 nm with the following ABTS concentration range: 0, 0.1, 0.2, 0.5, 1, 2, 5, 10, 15, 20, 30 and 40 mM.

For assay [2] the test system is unchanged. Put plainly: Pre-steady-state kinetics: compound I formation and return to native state (stopped-flow, 412 nm). Format: biochemical. The note with it: wt RbMPO […], H2O2 20 μM, 37° C., pH7.5. The method, then:
In the first moment after an enzyme is mixed with a substrate, no product has been formed and no intermediates exist. The study of the next few milliseconds of the reaction is called pre-steady-state kinetics.
Kinetic parameters under pre-steady-state condition were performed with a Biologic SFM400 stopped-flow at 412 nm, 37° C. and with 50 mM sodium phosphate buffer at pH7.5. […] An exponential linear fit was applied to each kinetic using the following formula: […]
where p1 corresponds to the exponential magnitude, p2 to the decay time Tau (s) and
The heme Soret band is at 412 nm for the native Fe^III iron form, which is why the decrease in absorbance was followed at this particular wavelength as a function of time. The rate constant was measured using the A412nm curves as a function of time (data not shown). By applying Eq.4 to the exponential part of each kinetic, the values of Tau (s) were determined and the kobs (s^−1) were calculated.
The return of the enzyme to its native state was studied by the impact of increasing concentrations of (pseudo)-halides substrates on compound I (FIG. 9B). […] It is the time difference (s) between the two characteristic steps that allowed the calculation of the values of the Vreturn(μM^−1.s^−1) values: […]

Assay [3] shares this test system. The note with it: wt, 300 nM enzyme; for kcatapp/KMappNaSCN (NaBr range) / kss/[Cl^−] (k2): 79 μM H2O2; for kss/[Cl^−] (k2): NaCl range.
Method: (§3) Initial rate measurements under steady state conditions were performed with a BioLogic SFM400 stopped-flow by using a single-mixing mode and an Xe/Hg lamp and a TC100/10 cell. […] At least five 120 s shots were monitored for each value of the substrate range with the following sample rates: 20 μs, 20 ms, 20 ms with 2000 points per period. Slopes were calculated from the average of the shorts for each concentration and kss (s^−1) were determined from the slopes using the following formula:
(§4) The collected data were analysed with Origin software, then saturation curves for each substrate were fitted either by non-linear regression with or without inhibition by excess of substrate (Eq. 1 and 2) with [S]the substrate of interest, or by linear regression (Eq. 3) with a the slope and b the y-intercept.
(§5) The stopped-flow was used to define the steady-state kinetic parameters of RbMPOs. […] From the averages of the curves obtained for each shot, the slopes in Abs.s^−1 were calculated and then converted into kss by the following relation:
Assay [4] deals with Rhodopirellula baltica RbMPO variant E316A (of SEQ ID NO: 1).
Method: as §3, §4, §5
For assay [5], the system named is Rhodopirellula baltica RbMPO variant Q199A (of SEQ ID NO: 1).
Method: as §3, §4, §5
Assay [6] concerns Rhodopirellula baltica RbMPO variant N317M (of SEQ ID NO: 1).
Method: as §3, §4, §5
The test system of assay [7] is Rhodopirellula baltica RbMPO variant H203A (of SEQ ID NO: 1).
Method: as §3, §4
(§6) From the averages of the curves obtained for each shot, the slopes in Abs.s^−1 were calculated and then converted into kss by the following relation:
Assay [8] concerns Rhodopirellula baltica RbMPO variant D202A, E316A (of SEQ ID NO: 1).
Method: as §3, §4, §6
The test system of assay [9] is Rhodopirellula baltica RbMPO variant D202A (of SEQ ID NO: 1). To be noted: pH 7.5.
Method: as §3, §4, §5
Assay [10] deals with Rhodopirellula baltica RbMPO variant H407A (of SEQ ID NO: 1).
Method: as §3, §4, §6
Assay [11] deals with Rhodopirellula baltica RbMPO variant N317M (of SEQ ID NO: 1). In words: Heme reconstitution (apo to holo) by tryptophan fluorescence quenching. To be noted: N317M 1 μM; 25° C., pH7.5. Format: binding. The method, then:
(§1) Tryptophan fluorescence quenching and recovery can be used to monitor the protein confirmation changes from an “apo” to an “holo” form upon addition of its coenzyme (herein heme).
(§2) The Trp fluorescence quenching experiment was performed in a spectrofluorometric FP8300 with a temperature-controlled stirred-cell (25° C.). […] Sample dilutions were performed in a 50 mM pH7.5 sodium phosphate buffer.

The test system of assay [12] is Rhodopirellula baltica RbMPO variant Q199A (of SEQ ID NO: 1). The description is as above. The note with it: Q199A 1 μM; 25° C., pH7.5. Format: binding. The method, then:
as §1, §2

The subject of assay [13] is Rhodopirellula baltica RbMPO variant E316A (of SEQ ID NO: 1). The assay is described as above. Format: binding. The note with it: E316A 1 μM; 25° C., pH7.5. The method, then: as §1, §2
Assay [14] relates to Rhodopirellula baltica RbMPO variant H203A (of SEQ ID NO: 1). Described as above. Format: binding. The note with it: H203A 1 μM; 25° C., pH7.5. The method, then:
as §1, §2

Assay [15] deals with Rhodopirellula baltica RbMPO variant D202A (of SEQ ID NO: 1). The description is as above. Format: binding. The note with it: D202A 1 μM; 25° C., pH7.5. The method, then:
as §1, §2

Assay [16] concerns the target Rhodopirellula baltica RbMPO variant D202A, E316A (of SEQ ID NO: 1). The assay is described as above. Format: binding. The note with it: E316A 1 μM, 25° C., pH7.5. The method, then:
as §1, §2

Assay [17] deals with Rhodopirellula baltica RbMPO variant H407A (of SEQ ID NO: 1). The assay is described as above. Format: binding. To be noted: H407A 1 μM; 25° C., pH7.5. The method, then: as §1, §2
Assay [18] concerns Rhodopirellula baltica RbMPO, wild type, SEQ ID NO: 1. Described as above. Format: binding. To be noted: wt RbMPO 1 μM; 25° C., pH7.5. The method, then:
as §1, §2

The structures appear in SMILES notation. Several values for one entry are separate records, joined by “and”; a condition that tells them apart may be missing. Equal entries are not always repeated. Where two headings read alike, the source gives them in different places.

A word on the Kd: it is the concentration at which binding is half-saturated. A low value points to a tighter complex.

As to `CCn1c(=NN=c2sc3cc(S(=O)(=O)O)ccc3n2CC)sc2cc(S(=O)(=O)O)ccc21` [ABTS, 2,2′-azino-bis(3-ethylbenzothiazoline-6-sulfonic acid)], in assay [1], the “k2 (peroxidase, ABTS)” value came to 10620 ± 1510 M⁻¹ s⁻¹.
On to `I` [I^−], for which, in assay [2], the “Vreturn (Sreturn/[enzyme])” value was determined as 16.66 ± 0.65 s⁻¹ and the “kreturn max (return to native state)” value is 31.65 ± 1.23 µM/s.
Take `[Br-].[Na+]` [NaBr]: the Km in assay [3] (read-out: KMapp (NaBr), 79 μM H2O2, 37° C., pH 7.5) came out at 133000 ± 32800 µM. For the same molecule, the “kcatapp (NaBr)” value in [3] (79 μM H2O2, 37° C., pH 7.5) stood at 76.33 ± 5.12 s⁻¹. In addition, the “kcatapp/KMappNaSCN (NaBr range)” value was determined as 576.86 ± 172.22 M⁻¹ s⁻¹ in assay [3] and 576.96 ± 172.22 M⁻¹ s⁻¹ in assay [3] (listed as Br^−). The “activity (NaBr range)” value in assay [4] and in assay [8] was “No activity” in each case. For the same molecule, the “kss/[SCN^−] (NaBr range)” value in [5] stood at 78.19 ± 22.00 M⁻¹ s⁻¹; in [6], 2.22 ± 1.20 M⁻¹ s⁻¹; in [7], 73.94 ± 15.07 M⁻¹ s⁻¹. In [2], the “Vreturn (Sreturn/[enzyme])” value was found to be 11.11 ± 0.57 s⁻¹. The “kreturn max (return to native state)” value in assay [2] was 21.11 ± 1.09 µM/s. Moreover, in assay [2], the “kreturn/K1/2 (return to native state)” value came to 607.77 ± 161.51 M⁻¹ s⁻¹.
On to `[Cl-].[Na+]` [NaCl], for which, in assay [3], the “kss/[Cl^−] (k2)” value is 5.46 ± 0.67 M⁻¹ s⁻¹. Moreover, the “kss/[Cl^−] (k2)” value in assay [3] (listed as Cl^−) came to 4.48 ± 0.64 M⁻¹ s⁻¹. Moreover, in [2], the “Vreturn (Sreturn/[enzyme])” value is 1.37 ± 0.19 s⁻¹, the “kreturn max (return to native state)” value came to 2.61 ± 0.37 µM/s and the “kreturn/K1/2 (return to native state)” value was found to be 5169 ± 4872 M⁻¹ s⁻¹.
As for `N#C[S-].[Na+]` [NaSCN], the Km came out at 510 ± 80 µM in assay [3] (read-out: KMapp (NaSCN), 79 μM H2O2, 37° C., pH 7.5) and 980 ± 310 µM in [9] (read-out: KMapp (NaSCN)). For the same molecule, the “kcatapp (NaSCN)” value is 56.90 ± 6.92 s⁻¹ in assay [3] (79 μM H2O2, 37° C., pH 7.5) and 83.54 ± 12.04 s⁻¹ in assay [9]. The “k2 (NaSCN)” value worked out at 1936 ± 374 M⁻¹ s⁻¹ in [4] (pH 7.5) and 1074 ± 53 M⁻¹ s⁻¹ in assay [6] (pH 7.5). In assay [5], the “activity (NaSCN range)” value was “No activity”. For the same molecule, in assay [2], the “Vreturn (Sreturn/[enzyme])” value turned out to be 13.65 ± 0.51 s⁻¹. For the same molecule, in assay [2], the “kreturn max (return to native state)” value was 25.94 ± 0.97 µM/s. Further, in assay [10], the “activity in presence of SCN” value is “not active”.
For `C=CC1=C(C)c2cc3[nH]c(cc4nc(cc5[nH]c(cc1n2)c(C)c5CCC(=O)O)C(CCC(=O)O)=C4C)c(C)c3C=C.[Fe+3]` [heme], the “k2 (heme reconstitution)” value was 470.2 ± 57.8 M⁻¹ s⁻¹ and 472.2 ± 57.8 M⁻¹ s⁻¹ in assay [11]; 1720 ± 133 M⁻¹ s⁻¹ in assay [12]; 418 ± 34 M⁻¹ s⁻¹ in assay [13]; 1840 ± 167 M⁻¹ s⁻¹ in assay [14]; 302+23.4 M−1 · s−1 in assay [15]; 1320 ± 18.9 M⁻¹ s⁻¹ in assay [17]. Besides, the “k2 (heme reconstitution)” value in assay [18] came to 1430 ± 74.4 M⁻¹ s⁻¹. Moreover, the equilibrium dissociation constant (Kd) in [16] was found to be 10.9 ± 6.14 µM. The “Kobsmax (heme reconstitution)” value in assay [16] came to 0.28 ± 0.06 s⁻¹.

For the origin of these results see US20250297232A1, “BACTERIAL MYELOPEROXIDASE-CATALASE AND APPLICATIONS THEREOF” (UNIVERSITÉ DE BORDEAUX, priority 2022, published 2025).
